The values that follow come from ChEMBL document CHEMBL3785074, “Molecular modeling and snake venom phospholipase A2 inhibition by phenolic compounds: Structure-activity relationship” (Eur J Med Chem, 2016).

Data set [1] can be described thus: Protective activity against Daboia russellii venom-induced hemorrhage in Swiss albino mouse at 100 mmol, iv assessed as hemorhagic lesion by measuring […] administered immediately after venom injection measured after 24 hrs (Rvb =5 ug). In kind it is functional, Daboia russelii.
Data set [2] in a line: Protective activity against Daboia russellii venom-induced hemorrhage in Swiss albino mouse at 100 mmol, iv assessed as hemorhagic lesion administered immediately after venom injection measured after 24 hrs relative to untreated control. In kind it is functional, Daboia russelii.
Data set [3] concerns Daboia russelii.
Data set [4] can be described thus: Lipophilicity, log P of compound. In kind it is physicochemical. The note with it: octanol/water; read-out: logP.
Data set [5] deals with Naja kaouthia.
Data set [6] is described as follows: Protective activity against Daboia russellii venom-induced hemorrhage in intradermally dosed Swiss albino mouse at 100 mmol assessed as hemorhagic lesion preincubated with venom for 1 hr followed by administration to mouse measured after 24 hrs relative to untreated control. In kind it is functional, Daboia russelii.
For data set [7], the system named is Naja kaouthia. This is another data set of the same source.
Description: Protective activity against Naja kaouthia venom-induced mortality in Swiss albino mouse at 100 mmol, iv by measuring venom LD50 administered immediately after venom injection measured after 24 hrs (Rvb = 2.82 ug)
Data set [8] can be described thus: Protective activity against Daboia russellii venom-induced hemorrhage in intradermally dosed Swiss albino mouse at 100 mmol assessed as hemorhagic lesion by measuring minimal […] dose preincubated with venom for 1 hr followed by administration to mouse measured after 24 hrs (reference value: 5 ug). In kind it is functional, Daboia russelii.
The test system of data set [9] is Daboia russelii. The data set is described as follows: (§1) Protective activity against Daboia russellii venom-induced mortality in Swiss albino mouse at 100 mmol, iv by measuring venom LD50 administered immediately after venom injection measured after 24 hrs (reference value: 2.28ug). In kind it is functional.
Data set [10] can be described thus: Protective activity against Daboia russellii venom-induced mortality by measuring venom LD50 in Swiss albino mouse at 100 mmol, iv preincubated with venom for 1 hr followed by administration to mouse measured after 24 hrs (reference value: 2.28 ug). In kind it is functional, Daboia russelii.
Data set [11] is described as follows: Protective activity against Naja kaouthia venom-induced mortality in Swiss albino mouse at 100 mmol, iv by measuring venom LD50 preincubated with venom for 1 hr followed by administration to mouse measured after 24 hrs (reference value: 2.82 ug). In kind it is functional.
The nature of data set [12]: Protective activity against Daboia russellii venom-induced mortality in Swiss albino mouse at 100 mmol, iv preincubated with venom for 1 hr followed by administration to mouse measured after 24 hrs relative to untreated control. In kind it is functional, Daboia russelii.
Data set [13] in a line: Protective activity against Naja kaouthia venom-induced mortality in Swiss albino mouse at 100 mmol, iv preincubated with venom for 1 hr followed by administration to mouse measured after 24 hrs relative to untreated control. In kind it is functional.
Data set [14] is described as follows: Protective activity against Daboia russellii venom-induced mortality in Swiss albino mouse at 100 mmol, iv administered immediately after venom injection measured after 24 hrs relative to untreated control. In kind it is functional, Daboia russelii.
Data set [15] in a line: as §1. In kind it is functional, Daboia russelii.
Data set [16] is described as follows: Protective activity against Naja kaouthia venom-induced mortality in Swiss albino mouse at 100 mmol, iv administered immediately after venom injection measured after 24 hrs relative to untreated control. In kind it is functional.
The nature of data set [17]: Protective activity against Naja kaouthia venom-induced mortality in Swiss albino mouse at 100 mmol, iv by measuring venom LD50 administered immediately after venom injection measured after 24 hrs (reference value: 2.82 ug). In kind it is functional.

Calls of active or inactive are those of the source. The rule behind the calls is not given here.

Turning to `Oc1ccc(O)cc1` [HYDROQUINONE], the MHC in [1] is 10 µg; in data set [8], 20 µg. The “fold change (FC)” value in data set [2] was 2; in data set [6], 4. The LD50 result in the data set on Daboia russelii [3], in the data set with Naja kaouthia [5], in the data set on Naja kaouthia [7] and with Daboia russelii [9] was “inactive” throughout. The logP in data set [4] is 1.48.

`COc1ccccc1OC` [1,2-DIMETHOXYBENZENE]: the results for the MHC in [1] and in data set [8] were 5 µg and 10 µg, respectively. The “fold change (FC)” value in data set [2] is recorded as 1; in data set [6], 2. In addition, the LD50 entry in the data set on Daboia russelii [3], with Naja kaouthia [5], with Naja kaouthia [7] and in the data set on Daboia russelii [9] was “inactive” in each case. Also, in data set [4], the logP was 1.44.

As for `COc1ccccc1C=O` [2-METHOXYBENZALDEHYDE], the LD50 amounted to 18 µg in data set [10], 6 µg in data set [11] and 100 µg in data set [15]. The MHC in [1] amounted to 5 µg; in data set [8], 10 µg. Also, the “fold change (FC)” value in data set [2] is 1; in [12], 8; in [13], 2.1; in [14], 2.5; in data set [6], 2. For the same compound, the logP in data set [4] was found to be 1.15. The LD50 result in the data set on Naja kaouthia [7] was “inactive”.

In the case of `COc1ccc(O)c(C=O)c1`, the LD50 in data set [10] was 11 µg; in data set [11], 6 µg; in data set [17] it was 8 µg; in data set [15], 100 µg. Further, the “fold change (FC)” value in [16] amounted to 1.6; in data set [2], 2; in [12] it was 4.9; in data set [13] it was 2.1; in data set [14] it was 2.5; in [6] it was 4. For the same compound, the MHC in [1] amounted to 10 µg; in data set [8], 20 µg. Besides, in data set [4], the logP was 1.93.

As to `COc1ccccc1` [ANISOLE], the MHC was 5 µg in [1] and 10 µg in [8]. The “fold change (FC)” value in [2] stood at 1; in data set [6], 2. The LD50 result in the data set with Daboia russelii [3], in the data set on Naja kaouthia [5], with Naja kaouthia [7] and with Daboia russelii [9] was “inactive” in each case. Moreover, the logP in data set [4] amounted to 1.44.

Turning to `O=Cc1ccc(O)c(O)c1` [PROTOCATECHUALDEHYDE], the LD50 in data set [10] came out at 6 µg; in [11], 3 µg; in [15], 50 µg. In addition, the MHC in [1] was 20 µg; in data set [8], 60 µg. Besides, the “fold change (FC)” value came to 4 in [2]; 2.6 in data set [12]; 1 in data set [13]; 1.25 in [14]; 12 in data set [6]. Moreover, the log partition coefficient (logP) in data set [4] is 2. Moreover, the LD50 entry in the data set on Naja kaouthia [7] is “inactive”.

As to `COc1cccc(OC)c1` [1,3-DIMETHOXYBENZENE], the MHC in data set [1] was determined as 5 µg; in data set [8], 10 µg. Further, the “fold change (FC)” value in data set [2] is 1; in data set [6], 2. For the same compound, the LD50 entry in the data set on Daboia russelii [3], in the data set on Naja kaouthia [5], in the data set with Naja kaouthia [7] and in the data set on Daboia russelii [9] was “inactive” throughout. Also, the logP in data set [4] worked out at 1.44.

Turning to `COc1ccc(C=O)cc1`, the MHC in [1] was determined as 5 µg; in [8], 15 µg. For the same compound, the “fold change (FC)” value is 1 in data set [2] and 3 in [6]. In addition, the LD50 result in the data set on Daboia russelii [3], with Naja kaouthia [5], in the data set with Naja kaouthia [7] and in the data set on Daboia russelii [9] was “inactive” throughout. The log partition coefficient (logP) in [4] worked out at 1.19.

In the case of `O=Cc1cccc(O)c1O`, the LD50 is 5 µg in data set [10] and 3 µg in [11]. For the same compound, the values for the MHC in data set [1] and in data set [8] were 10 µg and 40 µg, respectively. Besides, the “fold change (FC)” value stood at 2 in [2], 2.1 in data set [12], 1 in data set [13] and 8 in data set [6]. The log partition coefficient (logP) in data set [4] was found to be 1.19. Also, the LD50 result in the data set with Naja kaouthia [7] and in the data set with Daboia russelii [9] was “inactive” throughout.

As for `Oc1ccccc1O` [CATECHOL], the MHC in data set [1] was 15 µg; in [8], 25 µg. The “fold change (FC)” value is given as 3 in data set [2] and 5 in data set [6]. Moreover, the LD50 result in the data set with Daboia russelii [3], with Naja kaouthia [5], in the data set on Naja kaouthia [7] and in the data set on Daboia russelii [9] was “inactive” each time. Also, the lipophilicity (logP) in data set [4] was determined as 1.48.

As for `O=Cc1cc(O)ccc1O`, the LD50 came to 5 µg in data set [10], 3 µg in data set [11] and 50 µg in data set [15]. Besides, the figures for the MHC in data set [1] and in data set [8] were 15 µg and 35 µg, respectively. Further, the “fold change (FC)” value in [2] came to 3; in [12], 2.1; in data set [13], 1; in data set [14], 1.25; in data set [6] it was 7. Moreover, the logP in data set [4] was 1.53. In addition, the LD50 entry in the data set on Naja kaouthia [7] was “inactive”.

For the compound `COc1cccc(C=O)c1`, the LD50 was found to be 25 µg in [10], 9 µg in [11] and 100 µg in data set [15]. Further, the MHC in data set [1] amounted to 5 µg; in data set [8] it was 15 µg. For the same compound, the “fold change (FC)” value in data set [2] was 1; in [12], 11.2; in data set [13], 3.2; in [14] it was 2.5; in [6], 3. Besides, the logP in [4] worked out at 1.15. For the same compound, the LD50 result with Naja kaouthia [7] is “inactive”.

Consider `O=Cc1cccc(O)c1` [3-HYDROXYBENZALDEHYDE], for which the MHC in data set [1] was 15 µg; in data set [8] it was 30 µg. The “fold change (FC)” value turned out to be 3 in data set [2]; 2.6 in data set [12]; 1 in data set [13]; 1.25 in [14]; 6 in data set [6].

In the case of `COc1ccc(OC)cc1` [1,4-DIMETHOXYBENZENE], the values for the MHC in [1] and in data set [8] were 5 µg and 10 µg, respectively. In addition, the “fold change (FC)” value in data set [2] stood at 1; in data set [6], 2. The LD50 entry with Daboia russelii [3], in the data set with Naja kaouthia [5], in the data set with Naja kaouthia [7] and in the data set on Daboia russelii [9] was “inactive” throughout. Moreover, the logP in [4] stood at 1.47.

`O=Cc1ccc(O)cc1` [4-HYDROXYBENZALDEHYDE]: the LD50 in data set [10] stood at 6 µg; in data set [11], 3 µg; in data set [15], 50 µg. The MHC is 10 µg in data set [1] and 15 µg in data set [8]. Besides, the “fold change (FC)” value in [2] was determined as 2; in [12], 2.6; in data set [13] it was 1; in data set [14], 1.25; in [6], 3. For the same compound, in data set [4], the logP is 1.15. For the same compound, the LD50 result with Naja kaouthia [7] was “inactive”.

Turning to `Oc1ccccc1` [PHENOL], the MHC turned out to be 5 µg in data set [1] and 10 µg in [8]. Further, the results for the “fold change (FC)” value in data set [2] and in [6] were 1 and 2, respectively. The LD50 entry with Daboia russelii [3], in the data set on Naja kaouthia [5], in the data set on Naja kaouthia [7] and in the data set with Daboia russelii [9] was “inactive” throughout. Besides, the logP in [4] was determined as 1.76.

In the case of `Oc1cccc(O)c1` [RESORCINOL], the MHC in data set [1] and in data set [8] was 10 µg in each case. In addition, the “fold change (FC)” value in data set [2] and in [6] was 2 each time. The LD50 result in the data set on Daboia russelii [3], with Naja kaouthia [5], in the data set on Naja kaouthia [7] and in the data set on Daboia russelii [9] was “inactive” in each case. In addition, the lipophilicity (logP) in [4] amounted to 1.48.

For `COc1ccc(C=O)cc1O` [ISOVANILLIN], the MHC in data set [1] and in data set [8] was 10 µg throughout. The “fold change (FC)” value in data set [2] and in data set [6] was 2 throughout. Moreover, the LD50 entry in the data set with Daboia russelii [3], in the data set with Naja kaouthia [5], with Naja kaouthia [7] and with Daboia russelii [9] was “inactive” throughout.
